Reference: ChEMBL document CHEMBL1201862, “PubChem BioAssay data set” (2004)
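Following 48 hours of exposure in 96-well plates, responses at five concentrations were used to interpolate endpoints linearly. The concentration for 50% growth inhibition is given as GI50.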 The source made the active and inactive calls. Rule as the data show it: active = GI50 up to about 1.1 µM and inactive = higher.

Assays:
Experiment in all cases: inhibition of tumour cell growth, NCI panel, 48 h
786-0 = test system: 786-0
A549 = test system: A549
ACHN = test system: ACHN
BT-549 = test system: BT-549
CAKI-1 = test system: CAKI-1
CCRF-CEM = test system: CCRF-CEM
COLO 205 = test system: COLO 205
DU-145 = test system: DU-145
EKVX = test system: EKVX
HCC 2998 = test system: HCC 2998
HCT-116 = test system: HCT-116
HCT-15 = test system: HCT-15
HL-60 = test system: HL-60
HOP-62 = test system: HOP-62
HT-29 = test system: HT-29
Hs-578T = test system: Hs-578T
IGROV-1 = test system: IGROV-1
K562 = test system: K562
KM12 = test system: KM12
LOX IMVI = test system: LOX IMVI
M14 = test system: M14
MCF7 = test system: MCF7
MDA-MB-231 = test system: MDA-MB-231
MDA-MB-435 = test system: MDA-MB-435
MDA-N = test system: MDA-N
MOLT-4 = test system: MOLT-4
Malme-3M = test system: Malme-3M
NCI-H226 = test system: NCI-H226
NCI-H23 = test system: NCI-H23
NCI-H460 = test system: NCI-H460
NCI-H522 = test system: NCI-H522
NCI/ADR-RES = test system: NCI/ADR-RES
OVCAR-3 = test system: OVCAR-3
OVCAR-4 = test system: OVCAR-4
OVCAR-5 = test system: OVCAR-5
OVCAR-8 = test system: OVCAR-8
PC-3 = test system: PC-3
RPMI-8226 = test system: RPMI-8226
RXF 393 = test system: RXF 393
SF-268 = test system: SF-268
SF-295 = test system: SF-295
SK-MEL-28 = test system: SK-MEL-28
SK-MEL-2 = test system: SK-MEL-2
SK-MEL-5 = test system: SK-MEL-5
SK-OV-3 = test system: SK-OV-3
SN12C = test system: SN12C
SNB-19 = test system: SNB-19
SNB-75 = test system: SNB-75
SW-620 = test system: SW-620
T47D = test system: T47D
TK-10 = test system: TK-10
U-251 = test system: U-251
UACC-257 = test system: UACC-257
UACC-62 = test system: UACC-62
UO-31 = test system: UO-31
HOP-92 = test system: HOP-92
SF-539 = test system: SF-539
A498 = test system: A498

Measured: GI50

Cc1ccc2c(O)cc(-c3cc4ccccc4s3)nc2n1
> 70.3 µM: HCT-15
inactive: 786-0 > 75.5 µM | A549 > 100 µM | ACHN 47.6 µM | BT-549 > 100 µM | CAKI-1 55 µM | CCRF-CEM > 100 µM | COLO 205 > 100 µM | DU-145 > 100 µM | EKVX 27.4 µM | HCC 2998 > 100 µM | HCT-116 > 100 µM | HL-60 > 100 µM | HOP-62 31.7 µM | HT-29 > 84.7 µM | Hs-578T > 41.6 µM | IGROV-1 6.65 µM | K562 > 100 µM | KM12 > 73.1 µM | LOX IMVI > 94.6 µM | M14 > 100 µM | MCF7 17.7 µM | MDA-MB-231 > 100 µM | MDA-MB-435 > 88.1 µM | MDA-N 98.9 µM | MOLT-4 > 100 µM | Malme-3M > 48.1 µM | NCI-H226 14.2 µM | NCI-H23 > 56.2 µM | NCI-H460 50.9 µM | NCI-H522 33.9 µM | NCI/ADR-RES > 57.7 µM | OVCAR-3 > 100 µM | OVCAR-4 > 75 µM | OVCAR-5 > 100 µM | OVCAR-8 30.3 µM | PC-3 > 100 µM | RPMI-8226 4.33 µM | RXF 393 33.7 µM | SF-268 43.2 µM | SF-295 40.1 µM | SK-MEL-28 > 100 µM | SK-MEL-2 > 100 µM | SK-MEL-5 74.5 µM | SK-OV-3 45.1 µM | SN12C > 100 µM | SNB-19 > 100 µM | SNB-75 17.5 µM | SW-620 > 100 µM | T47D 2.13 µM | TK-10 > 95.9 µM | U-251 > 100 µM | UACC-257 > 100 µM | UACC-62 > 68.7 µM
active: UO-31 0.0353 µM

Clc1ccc(Oc2ccc(/N=C/c3ccc(Cl)cc3Cl)cc2Cl)cc1
23.8 µM: HCT-15
inactive: 786-0 22.4 µM | A549 64.6 µM | ACHN > 100 µM | BT-549 29.2 µM | CAKI-1 36.5 µM | CCRF-CEM 4.29 µM | COLO 205 64.7 µM | DU-145 64.6 µM | EKVX 30.1 µM | HCC 2998 > 100 µM | HCT-116 33 µM | HL-60 9.2 µM | HOP-62 54.3 µM | HOP-92 34.2 µM | HT-29 36.9 µM | Hs-578T 25.9 µM | IGROV-1 44.8 µM | KM12 29.5 µM | LOX IMVI 28.3 µM | M14 29.4 µM | MCF7 33.7 µM | MDA-MB-231 51.3 µM | MDA-MB-435 18.5 µM | MDA-N 14.8 µM | MOLT-4 21.7 µM | Malme-3M 27.3 µM | NCI-H226 > 100 µM | NCI-H23 40.8 µM | NCI-H460 63.7 µM | NCI-H522 25.2 µM | NCI/ADR-RES 25.7 µM | OVCAR-3 33.8 µM | OVCAR-4 44.5 µM | OVCAR-5 > 100 µM | OVCAR-8 41.2 µM | PC-3 35 µM | RPMI-8226 9.2 µM | SF-268 31.8 µM | SF-295 39.5 µM | SF-539 23.6 µM | SK-MEL-28 34.2 µM | SK-MEL-2 61.2 µM | SK-MEL-5 36.1 µM | SK-OV-3 73.3 µM | SN12C 48.3 µM | SNB-19 41.6 µM | SNB-75 23.6 µM | SW-620 33 µM | T47D 43.6 µM | TK-10 > 100 µM | U-251 29.4 µM | UACC-257 66.1 µM | UACC-62 37.7 µM | UO-31 21.6 µM

Cn1c(=O)n(-c2c3ccccc3c(Cl)c3ccccc23)n(C(C)(C)C)c1=O
> 100 µM: HCT-15
inactive: 786-0 48.8 µM | A498 > 100 µM | A549 > 100 µM | ACHN > 100 µM | BT-549 > 100 µM | CAKI-1 > 100 µM | CCRF-CEM > 100 µM | COLO 205 > 100 µM | DU-145 > 100 µM | EKVX > 100 µM | HCC 2998 > 100 µM | HCT-116 > 100 µM | HL-60 > 100 µM | HOP-62 38.4 µM | HOP-92 57.7 µM | HT-29 > 100 µM | Hs-578T 41.3 µM | IGROV-1 > 100 µM | K562 > 100 µM | KM12 > 100 µM | LOX IMVI > 100 µM | M14 > 100 µM | MCF7 > 100 µM | MDA-MB-231 97.1 µM | MDA-MB-435 > 100 µM | MDA-N > 100 µM | MOLT-4 > 100 µM | Malme-3M > 100 µM | NCI-H226 44.6 µM | NCI-H23 > 100 µM | NCI-H460 > 100 µM | NCI-H522 > 100 µM | NCI/ADR-RES > 100 µM | OVCAR-3 > 100 µM | OVCAR-5 > 100 µM | OVCAR-8 49.5 µM | PC-3 > 100 µM | SF-268 59.8 µM | SF-295 > 100 µM | SF-539 43.6 µM | SK-MEL-28 > 100 µM | SK-MEL-2 > 100 µM | SK-MEL-5 > 100 µM | SK-OV-3 > 100 µM | SN12C > 100 µM | SNB-19 > 100 µM | SNB-75 12.1 µM | SW-620 > 100 µM | T47D > 100 µM | TK-10 > 100 µM | U-251 > 100 µM | UACC-257 > 100 µM | UACC-62 > 100 µM | UO-31 > 100 µM
